We go through two compounds from the NIST ThermoML archive (doi:10.1016/j.tca.2015.05.015).

The conditions of data set [1]: Crystal; DTA.
Data set [2] is described as follows: Molar enthalpy of transition or fusion. Conditions: Crystal; DSC.

± gives the expanded uncertainty stated by the source.

On to `CCCCCCCCCCCCCCCCCC` [octadecane], for which, in data set [1], the Normal melting temperature stood at 25 ± 5 °C. Moreover, the “Molar enthalpy of transition or fusion” value in data set [2] worked out at 59.3 ± 2.5 kJ/mol.

With `CCCCCCCCCCCCCCCC` [hexadecane], in data set [1], the Normal melting temperature stood at 17 ± 5 °C. The “Molar enthalpy of transition or fusion” value in data set [2] amounted to 50 ± 2.3 kJ/mol.
